# Measured values: patent US12233071B2, “Medicament for treating cough” (NIPPON CHEMIPHAR CO., LTD, priority 2018, dated 2025)
# Structures can show the parent of a compound that is named as a salt. Where two headings read alike, the source gives them in different places.
# Tests used:
# [1] = target: T1, human P2X4 (Homo sapiens, UniProt Q99571); assay: P2X4 receptor antagonistic action: ATP-induced intracellular calcium response (Fura-2AM) in P2X4 receptor-expressing 1321N1 cells; assay type: cell-based
# T1 sequence (Q99571 1-388): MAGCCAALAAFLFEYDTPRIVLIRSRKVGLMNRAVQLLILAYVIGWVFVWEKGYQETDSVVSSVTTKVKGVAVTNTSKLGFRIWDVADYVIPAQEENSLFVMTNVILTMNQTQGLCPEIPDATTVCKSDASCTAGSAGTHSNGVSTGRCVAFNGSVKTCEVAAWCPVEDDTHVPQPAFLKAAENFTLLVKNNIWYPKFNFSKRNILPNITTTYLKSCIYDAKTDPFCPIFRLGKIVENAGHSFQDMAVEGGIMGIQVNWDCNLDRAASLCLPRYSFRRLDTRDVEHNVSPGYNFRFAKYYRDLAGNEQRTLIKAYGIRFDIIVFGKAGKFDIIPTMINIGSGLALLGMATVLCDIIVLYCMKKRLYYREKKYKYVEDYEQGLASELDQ
# Procedure: An ATP receptor (human P2X4) was introduced in 1321N1 cells, which were then used as a system in which P2X4 receptor was expressed stably. The P2X4 receptor-expressing cells were seeded on a 96-well plate, were cultured for 24 h under conditions at 37° C. and 5% C02, and were then used for calcium measurement. Fura-2AM, which is a calcium fluorescence indicator, was dissolved in an extracellular solution for calcium imaging and applied to the seeded cells. Then, the cells were allowed to stand at room temperature for 45 min. In this way, the Fura-2AM was taken up in the cells. A micro plate reader EnVision (PerkinElmer) was used for the measurement. Light emitted from a xenon lamp was made to pass through a 340-nm or 380-nm filter, and F340 or F380, which is 510-nm fluorescence emitted when the cells were irradiated, were observed. Then, a change in the ratio value F340/F380 was an index for the intracellular calcium change. The measurement was carried out by adding ATP at the final concentration of 1 μM to each well and by recording, over time, the ATP-induced intracellular calcium response. The inhibitory activity of each test substance was measured by conducting 15-min pretreatment with each test substance before ATP application, and was calculated while compared to the case of the absence of the test substance.
# [2] = system: citric acid (0.25 M)-induced cough; assay: Citric acid-induced cough reflux in pretreatment mice, oral administration; assay type: in vivo, ICR strain mice; details: oral 10 mg/kg, 0.25 M citric acid 1 h after administration
# [3] = system: citric acid (0.5 M)-induced cough; assay: Citric acid-induced cough reflux in pretreatment guinea pigs, oral administration; assay type: in vivo, Hartly strain guinea pigs; details: for number of coughs, pre versus post administration: pretreatment guinea pigs
# From the text: Cough reflux is induced by inhalation of (in the case of mice, 0.1 M or 0.25 M and in the case of guinea pigs, 0.25 M or 0.5 M) citric acid by mice or guinea pigs under non-anesthesia conditions. The citric acid is made aerosol by using an ultrasonic nebulizer (NE-U17: OMRON Corporation), and is inhaled while the air is supplied with an artificial respirator (SN-480-7: Shinano Seisakusho). The citric acid aerosol has an average particle size of from 1 to 8 μm, and the artificial respirator is used to supply the air at a one-time ventilation volume of 6 mL, a frequency of 30 times per min, and an inhalation period of 3 min.
# The respiration and the cough reflux are measured in accordance with the body-plethysmograph method. The plethysmograph used includes: a plastic-made, cylindrical cylinder part in which the trunk of each mouse or guinea pig is housed; and a cap part that covers the head portion (any plastic-made cylinder is allowed as long as each experimental animal can be put in; in the case of the mouse, for instance, the part with a diameter of 4 cm and a length of 7 cm was used). An exhaust hole is created at an upper cylinder portion so as to be able to connect, via a silicon tube, to a respiratory flow meter (TP-602T: NIHON KOHDEN CORPORATION). To tightly seal the inside of the cylinder, a rubber or celluloid collar is attached to the neck of each animal, and the cap covering the whole head is used to fix them. The head-attached cap part has an exhaust port and an inhalation port created for inhalation of a cough-inducing substance. In addition, a screw-type lid is attached to a tail portion of the cylinder so as to move in or out each experimental animal. Each mouse is put in the cylinder, allowed to play for at least 30 min, adapted to an experimental environment, and then subjected to the experiment. The respiration is recorded in a PC (IdeaPad 300: Lenovo) for measurement by measuring, as a change in volume of the cylinder, the chest movement of each experimental animal in the cylinder by using a PowerLab (ML826 PowerLab 2/26: AD Instruments) via a respiratory flow meter. When a cough is induced, the chest of the experimental animal is moved vigorously, which causes an instantaneous large volume change in the cylinder. This change is recorded using the respiratory flow meter. This frequency is recorded to measure the number of coughs. The data is analyzed by LabChart version 8 (ADInstruments). In addition, immediately before inhalation of citric acid, the respiratory frequency per 15 sec is measured.
# In this way, the effects were investigated.
# At that time, Hartly strain guinea pigs were used as the guinea pigs, and 0.5 M citric acid was used as the citric acid.
# In this way, the effects were investigated. Here, 0.5 M citric acid was used as the pretreated citric acid.
# [4] = system: citric acid-induced cough; details: cited from earlier work
# [5] = Table 131 (Example 1), human P2X4-expressing 1321N1 cells, ATP 1 μM, Fura-2AM calcium response, read-out: IC50
molecule,measurement,setting,value
"O=C1CC(=O)N(c2ccc(F)c(-c3nnn[nH]3)c2)c2ccc3ccccc3c2N1 [Compound A23, 5-[4-fluoro-3-(1H-tetrazol-5-yl)phenyl]-1H-naphtho[1,2-b][1,4]diazepin-2,4(3H,5H)-dione sodium salt]",IC50,[1]; [5],490 nM
"COc1ccc2c3c1O[C@H]1[C@@H](O)CC[C@H]4[C@@H](C2)N(C)CC[C@@]341 [dihydrocodeine, reference compound]","cough inhibition rate, compound A versus the same dose of dihydrocodeine",[2],comparable
"5-[4-[(2-(3-fluorophenyl)ethyl)-1H-imidazol-1-yl]phenyl]-1H-naphtho[1,2-b][1,4]diazepin-2,4(3H,5H)-dione hydrochloride [Compound H31]",IC50,"[1]; Table 135 (Example 14), same protocol as Example 1, read-out: Inhibitory action IC50",51 nM
"O=C1CC(=O)N(c2ccc(-n3nnnc3Cc3ccccc3O)nc2)c2ccc3ccccc3c2N1 [Compound H11, 5-[6-[5-(2-hydroxybenzyl)-1H-tetrazol-1-yl]pyridin-3-yl]-1H-naphtho[1,2-b][1,4]diazepin-2,4(3H,5H)-dione]",IC50,"[1]; Table 134 (Example 14), same protocol as Example 1, read-out: Inhibitory action IC50",77 nM
"O=c1[nH]c2c3ccccc3ccc2n(-c2cccc(-c3nnn[nH]3)c2)c1=O [Compound C2, 4-[3-(1H-tetrazol-5-yl)phenyl]-1,4-dihydrobenzo[f]quinoxalin-2,3-dione sodium salt]",IC50,[1]; [5],570 nM
"COc1c(F)cccc1CCc1nccn1-c1ccc(N2C(=O)CC(=O)Nc3c2ccc2ccccc32)cc1 [Compound H83, 5-[4-[(2-(3-fluoro-2-methoxyphenyl)ethyl)-1H-imidazol-1-yl]phenyl]-1H-naphtho[1,2-b][1,4]diazepin-2,4(3H,5H)-dione hydrochloride]",IC50,[1]; read-out: Inhibitory action IC50,87 nM
"CN(C)c1ncccc1C(=O)Nc1ccc(C2=NCC(=O)Nc3c2ccc2ccccc32)cc1.Cl.Cl [compound D, 2-(dimethylamino)-N-[4-(2-oxo-2,3-dihydro-1H-naphtho[1,2-e][1,4]diazepin-5-yl)phenyl]nicotinamide dihydrochloride]",cough response increased due to airway inflammation,"[3]; as stated in Example 15, oral 30 mg/kg",completely inhibit
same,"number of coughs, pre versus post administration",[3]; oral 30 mg/kg 1 h before 0.5 M citric acid stimulation,significantly decreased
"O=C1CC(=O)N(c2ccc(NC(=O)c3ccccc3C(F)(F)F)cc2)c2ccc3ccccc3c2N1 [compound C, 5-[4-[2-(trifluoromethyl)benzoyl]aminophenyl]-1H-naphtho[1,2-b][1,4]diazepin-2,4(3H,5H)-dione]",cough response increased due to airway inflammation,"[3]; as stated in Example 15, oral 58.8 mg/kg",inhibited completely
same,"number of coughs, pre versus post administration",[3]; oral 58.8 mg/kg 1 h before 0.5 M citric acid stimulation,significantly decreased
TNP-ATP,number of coughs induced by citric acid and increased depending on the concentration of ATP,[4]; Non Patent Literature 2,decreased
same,inhibition of the ATP-elicited increase of citric acid-induced cough,"[4]; guinea pigs, inhalation pretreatment / aerosol, Non Patent Literature 1",completely inhibited
"Nc1ncnc2c1ncn2[C@@H]1O[C@H](COP(=O)(O)OP(=O)(O)OP(=O)(O)O)[C@@H](O)[C@H]1O [ATP, adenosine triphosphate]",effect of ATP on citric acid-induced cough,"[4]; guinea pigs, Non Patent Literature 1",elicited a concentration-dependent and significant increase
"O=C1CN=C(c2cccc(-c3nnn[nH]3)c2)c2ccc3ccccc3c2N1 [Compound A21, 5-[3-(1H-tetrazol-5-yl)phenyl]-1,3-dihydro-2H-naphtho[1,2-e][1,4]diazepin-2-one sodium salt]",IC50,[1],910 nM
"O=c1nc(-c2cccc(-c3nnn[nH]3)c2)c2ccc3ccccc3c2[nH]1 [Compound D2, 4-[3-(1H-tetrazol-5-yl)phenyl]-1H-benzo[h]quinazolin-2-one sodium salt]",IC50,[1]; [5],330 nM
